Source: patent US20140308733A1, “METHOD FOR INDUCING GERMINATION OF SPORE FORMING BACTERIUM” (CALPIS CO., LTD., priority 2011, published 2014)

Experiments:
[1] = tested on: Bacillus amyloliquefaciens (NBRC 3022); test: Germination induction, change of turbidity (630 nm) of spore suspension; format: cell-based; conditions: 300 ppm; for turbidity (630 nm): 37° C., 150 rpm; for germination confirmed by turbidity decrease: up to 180 min
[2] = tested on: Bacillus coagulans (NBRC 12583); test: as above; format: cell-based; conditions: 300 ppm; for turbidity (630 nm): 37° C., 150 rpm; for germination confirmed by turbidity decrease: up to 180 min
[3] = tested on: Bacillus subtilis C-3102 (FERM BP-1096); test: Germination induction by ferulic acid, vanillic acid or p-coumaric acid at 300 ppm, turbidity change (Example 3); format: cell-based; conditions: for turbidity (630 nm): 37° C., 150 rpm
Protocol: In each 500 mL of distilled water heated to 70° C. was added 0.3 g of ferulic acid, vanillic acid, or p-coumaric acid. After dissolving with stirring using a stirring rod with a propeller, filtration sterilization (0.45 μm filter) was conducted to prepare each 600 ppm-solution.
Next, 500 μL aliquots of bacterial suspension of Bacillus subtilis C-3102 (FERM BP-1096) prepared by a similar method as in Example 1 were mixed with 500 μL of each of the ferulic acid, vanillic acid, and p-coumaric acid solutions, and the mixtures were adjusted to 300 ppm of ferulic acid, vanillic acid, or p-coumaric acid concentration. Defining the time point of mixing as the reaction initiation (0 min), and continuing shaking (150 rpm) at 37° C., the turbidity (630 nm) was measured at 10, 20, 30, 40, 50, 60, 90, 120, and 180 min after the reaction initiation.

C-3102 strain = test: Long time culture of spore suspension with inducer, turbidity up to 24 hours (proliferation check, Example 4); format: cell-based, Bacillus subtilis; conditions: 500 μL spore suspension + 500 μL of 600 ppm solution
Protocol: This Example is an experiment to examine whether proliferation is recognizable or not, when ferulic acid or vanillic acid is mixed with a spore suspension of the C-3102 strain and cultured for a long time period.
The C-3102 strain was cultured on a nutrient plate at 37° C. for 3 days, and thereafter bacterial cells were collected by a bacteria spreader and a spore suspension was prepared similarly as in Example 1 (OD 630=1.0). After mixing 500 μL of the C-3102 spore suspension with 500 μL of a 600 ppm-ferulic acid solution, or a 600 ppm-vanillic acid solution, change in the turbidity (630 nm) up to 24 hours was examined.

[4] = 0 min after reaction initiation
[5] = 10 min after reaction initiation
[6] = 20 min after reaction initiation
[7] = 30 min after reaction initiation
[8] = 40 min after reaction initiation
[9] = 50 min after reaction initiation
[10] = 60 min after reaction initiation
[11] = 90 min after reaction initiation
[12] = 120 min after reaction initiation
[13] = 180 min after reaction initiation

COc1cc(/C=C/C(=O)O)ccc1O [Ferulic acid, ferulic acid]
turbidity (630 nm) [1, 4]: 0.522 | turbidity (630 nm) [1, 5]: 0.447 | turbidity (630 nm) [1, 6]: 0.400 | turbidity (630 nm) [1, 7]: 0.328 | turbidity (630 nm) [1, 8]: 0.234 | turbidity (630 nm) [1, 9]: 0.192 | turbidity (630 nm) [1, 10]: 0.133 | turbidity (630 nm) [1, 11]: 0.094 | turbidity (630 nm) [1, 12]: 0.067 | turbidity (630 nm) [1, 13]: 0.030 | germination confirmed by turbidity decrease [1]: the turbidity decreased | turbidity (630 nm) [2, 4]: 0.558 | turbidity (630 nm) [2, 5]: 0.520 | turbidity (630 nm) [2, 6]: 0.518 | turbidity (630 nm) [2, 7]: 0.510 | turbidity (630 nm) [2, 8]: 0.460 | turbidity (630 nm) [2, 9]: 0.392 | turbidity (630 nm) [2, 10]: 0.350 | turbidity (630 nm) [2, 11]: 0.266 | turbidity (630 nm) [2, 12]: 0.217 | turbidity (630 nm) [2, 13]: 0.198 | germination confirmed by turbidity decrease [2]: the turbidity decreased | germination confirmed by turbidity decrease [3]: decreased, thereby to confirm germination | turbidity (630 nm) [3, 4]: 0.545 | turbidity (630 nm) [3, 5]: 0.527 | turbidity (630 nm) [3, 6]: 0.513 | turbidity (630 nm) [3, 7]: 0.484 | turbidity (630 nm) [3, 8]: 0.466 | turbidity (630 nm) [3, 9]: 0.449 | turbidity (630 nm) [3, 10]: 0.413 | turbidity (630 nm) [3, 11]: 0.368 | turbidity (630 nm) [3, 12]: 0.313 | turbidity (630 nm) [3, 13]: 0.233 | turbidity (630 nm) (C-3102 strain; reaction time 0 hr): 0.574 | turbidity (630 nm) (C-3102 strain; reaction time 0.5 hr): 0.543 | turbidity (630 nm) (C-3102 strain; reaction time 1 hr): 0.502 | turbidity (630 nm) (C-3102 strain; reaction time 1.5 hr): 0.464 | turbidity (630 nm) (C-3102 strain; reaction time 2 hr): 0.425 | turbidity (630 nm) (C-3102 strain; reaction time 3 hr): 0.370 | turbidity (630 nm) (C-3102 strain; reaction time 24 hr): 0.178

COc1cc(C(=O)O)ccc1O [Vanillic acid, vanillic acid]
turbidity (630 nm) [1, 4]: 0.548 | turbidity (630 nm) [1, 5]: 0.402 | turbidity (630 nm) [1, 6]: 0.295 | turbidity (630 nm) [1, 7]: 0.221 | turbidity (630 nm) [1, 8]: 0.150 | turbidity (630 nm) [1, 9]: 0.100 | turbidity (630 nm) [1, 10]: 0.076 | turbidity (630 nm) [1, 11]: 0.047 | turbidity (630 nm) [1, 12]: 0.021 | turbidity (630 nm) [1, 13]: 0.018 | germination confirmed by turbidity decrease [1]: the turbidity decreased | turbidity (630 nm) [2, 4]: 0.590 | turbidity (630 nm) [2, 5]: 0.528 | turbidity (630 nm) [2, 6]: 0.490 | turbidity (630 nm) [2, 7]: 0.430 | turbidity (630 nm) [2, 8]: 0.390 | turbidity (630 nm) [2, 9]: 0.335 | turbidity (630 nm) [2, 10]: 0.290 | turbidity (630 nm) [2, 11]: 0.225 | turbidity (630 nm) [2, 12]: 0.180 | turbidity (630 nm) [2, 13]: 0.137 | germination confirmed by turbidity decrease [2]: the turbidity decreased | germination confirmed by turbidity decrease [3]: decreased, thereby to confirm germination | turbidity (630 nm) [3, 4]: 0.542 | turbidity (630 nm) [3, 5]: 0.525 | turbidity (630 nm) [3, 6]: 0.506 | turbidity (630 nm) [3, 7]: 0.485 | turbidity (630 nm) [3, 8]: 0.467 | turbidity (630 nm) [3, 9]: 0.450 | turbidity (630 nm) [3, 10]: 0.409 | turbidity (630 nm) [3, 11]: 0.379 | turbidity (630 nm) [3, 12]: 0.356 | turbidity (630 nm) [3, 13]: 0.282 | turbidity (630 nm) (C-3102 strain; reaction time 0 hr): 0.575 | turbidity (630 nm) (C-3102 strain; reaction time 0.5 hr): 0.540 | turbidity (630 nm) (C-3102 strain; reaction time 1 hr): 0.481 | turbidity (630 nm) (C-3102 strain; reaction time 1.5 hr): 0.426 | turbidity (630 nm) (C-3102 strain; reaction time 2 hr): 0.380 | turbidity (630 nm) (C-3102 strain; reaction time 3 hr): 0.316 | turbidity (630 nm) (C-3102 strain; reaction time 24 hr): 0.060
